Data published in PMC2774465 (Journal of natural products, 2008).
Converted amounts (≈) assume the structure as drawn. Read-outs that look alike come from different tables or passages of the source.

What was measured:
Trypanasoma cruzi = test: Chagas disease bioassay; type: cell-based, T. cruzi; conditions: Trypanosoma cruzi
Plasmodium falciparum = test: Malaria bioassay; type: cell-based
[1] = tested on: L. donovani amastigotes (LD-1S/MHOM/SD/00-strain 1S); type: cell-based; conditions: Leishmania donovani, read-out: IC50 L. donovani
Leishmania = conditions: cited from earlier work

| SMILES | IC50 (Trypanasoma cruzi; read-out: IC50 T. cruzi) | IC50 (Plasmodium falciparum; read-out: IC50 P. falciparum) | also measured |
| --- | --- | --- | --- |
| O=C1C=C[C@]23Oc4ccc(O)c5c4[C@](CCC5=O)(Oc4cccc1c42)O3 [Compound 1, preussomerin EG1] | > 10 µg/mL |  |  |
| C[C@@H]1[C@H](O)[C@@H](C)/C=C/C=C/C=C/C=C/C=C/C=C/C=C/[C@H](O[C@@H]2O[C@H](C)[C@@H](O)[C@H](N)[C@@H]2O)C[C@@H]2O[C@](O)(C[C@@H](O)C[C@@H](O)[C@H](O)CC[C@@H](O)C[C@@H](O)CC(=O)O[C@H]1C)C[C@H](O)[C@H]2C(=O)O [amphotericin B] |  |  | IC50 [1]: 90 nM |
| COc1cc(OC)c(-c2c(C)cc3cccc(OC)c3c2O)c2c1C(C)=N[C@@H](C)C2 [ancistrotanzanine A] |  |  | antileishmanial activity IC50 (Leishmania): 1.8 µg/mL |
| COc1cc(OC)c(-c2ccc(OC)c3c(OC)cc(C)cc23)c2c1C(C)=N[C@@H](C)C2 [ancistrotanzanine B] |  |  | antileishmanial activity IC50 (Leishmania): 1.6 µg/mL |
| CCN(CC)CCCC(C)Nc1ccnc2cc(Cl)ccc12 (stereo not drawn) [chloroquine, reference compound] |  |  | IC50 (Plasmodium falciparum; read-out: IC50 (positive control, malaria bioassay)): 80 to 100 nM |
| CC1CS(=O)(=O)CCN1/N=C/c1ccc([N+](=O)[O-])o1 (stereo not drawn) [nifurtimox, reference compound] |  |  | IC50 (Trypanasoma cruzi; read-out: IC50 (positive control, Chagas disease bioassay)): 3 to 5 µg/mL (≈ 10.4 to 17.4 µM) |

Continued, in another order:

| IC50 (Trypanasoma cruzi; read-out: IC50 T. cruzi) | IC50 (Plasmodium falciparum; read-out: IC50 P. falciparum) | SMILES | also measured |
| --- | --- | --- | --- |
|  | > 10 µg/mL | O=C1CCC2(Oc3cccc4cccc(c34)O2)c2cccc(O)c21 [Compound 2, palmarumycin CP2] |  |
| > 10 µg/mL | > 10 µg/mL | O=C1CCC2(Oc3cccc4cccc(c34)O2)c2c(O)ccc(O)c21 [Compound 3, palmarumycin CP17] |  |
| > 10 µg/mL | > 10 µg/mL | O=C1C=CC(=O)C2=C1[C@@H](O)CCC21Oc2cccc3cccc(c23)O1 [Compound 4, 4(S)-hydroxy-2,3-dihydro-2(H)-spiro[naphthalene-1(4H),2'-naphtho[1,8-de][1,3]dioxin]-5,8-dione] |  |
|  | > 10 µg/mL | Oc1cccc2c1[C@@H](O)CCC21Oc2cccc3cccc(c23)O1 [Compound 5, CJ-12,371] |  |
